Test results as given in US20170283834A1, “Processes for Producing A Fermentation Product Using A Fermenting Organism” (Novozymes A/S, priority 2014, published 2017).

Tests used:
Ethanol Red™ [1] = assay: Addition of acetate to ethanol fermentations (SSF of corn mash); conditions: for % change over no added acetate: glycerol
Procedure: The yeast strain tested in this experiment was Ethanol […] ). […] After a total of 30 minutes, the flasks were removed from the water bath. Total yeast concentration was determined using the YC-100 in duplicate. LactrolTM (PhibroChem) was added to each mash to a final concentration of 24 ppm. […] Approximately 5 grams of each of the resulting mashes was transferred to test tubes having a 1/64 hole drilled in the top to allow CO2 release. […] Yeast was dosed at 5×10e6 cells/g mash. Milli-Q water was added to each tube so that a total volume of liquid added (enzyme+MQ water+acid) to each tube would be equally proportionate to the mash weight. Fermentations took place in a 32° C. water bath for 54 hours. Samples were vortexed periodically (in the morning and in the evening) throughout the fermentation. […] Fermentation sampling took place after 48 and 54 hours of fermentation by sacrificing 3 tubes per treatment. […] All samples were processed without further dilution. Samples were stored at 4° C. prior to and during HPLC analysis. Samples were analyzed for sugars (DP4+, DP3, DP2, glucose, and fructose), organic acids (lactic and acetic), glycerol, and ethanol.

Ethanol Red™ [2] = assay: Addition of benzoate, propionate and formate to ethanol fermentations (SSF of corn mash); format: cell-based, Saccharomyces cerevisiae; conditions: for Glycerol pH 3.8 (w/v %) / Glycerol pH 5 (w/v %) / ETOH pH 3.8 (w/v %) / ETOH pH 5 (w/v %) / % Boost over no added acid: 54 hours; for % Boost over no added acid: ethanol; for % Change from no added acid: glycerol
Procedure: Industrially prepared corn mash was obtained from Lincolnland (Liquozyme™ SODS liquefaction).
After 15 minutes, the flasks were swirled, but no other agitation took place.
The pH after liquefaction was 4.9 and was adjusted to various pHs for SSF. […] Glucoamylase SA (“GSA”)/Cellulase VD (“CVD”) enzyme blend was dosed to each tube of mash at 110 μg EP GSA/gDS and 30 μg EP CVD/gDS. […] Benzoic acid was added in the range of 0-0.8 mM. Propionic and Formic acid were added in the range of 0-30 mM. All acid additions were done prior to inoculation (i.e., before exponential growth).
Each tube was processed for HPLC analysis by deactivation with 150 μL of 40% v/v H2SO4, vortexing, centrifuging at 1460×g for 10 minutes, and filtering through a 0.45 μm Whatman PP filter. All samples were processed without further dilution.

zein = assay: Relative activity assay of protease variants (zein micro titer plate); format: biochemical; conditions: Table 5, upper part
In short: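 Yeast culture supernatants (3 days, 28 °C) incubated over 4 h or overnight on zein-agar plates (pH 4.5 acetate, 0.25 mM ZnSO4) at two temperatures. Zein turbidity read at A630; higher/lower-temperature activity ratio gives relative thermoactivity.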

[3] = acid Concentration 0.2 (mM), pH 3.8
[4] = acid Concentration 0.2 (mM), pH 5
[5] = acid Concentration 0.5 (mM), pH 3.8
[6] = acid Concentration 0.5 (mM), pH 5
[7] = acid Concentration 0.8 (mM), pH 3.8
[8] = acid Concentration 0.8 (mM), pH 5

`CC(=O)O` [Acetate, acetic acid] was tested, and the “Glycerol levels with added acetate” value (Ethanol Red™ [1]) was “reduced”, the “48 Hour ETOH (w/v %)” value (Ethanol Red™ [1]; Added Acetate 5 mM, 48 hours) was 13.55 w/v % and the “48 Hour Glycerol (w/v %)” value (Ethanol Red™ [1]; Added Acetate 5 mM, 48 hours) was 1.636 w/v %. For the same molecule, the “% Boost over no added acetate” value (Ethanol Red™ [1]; Added Acetate 5 mM, 48 hours) was 0.28%, the “54 Hour ETOH (w/v %)” value (Ethanol Red™ [1]; Added Acetate 5 mM, 54 hours) was 13.71 w/v % and the “54 Hour Glycerol (w/v %)” value (Ethanol Red™ [1]; Added Acetate 5 mM, 54 hours) was 1.625 w/v %. For the same molecule, the “% Boost over no added acetate” value (Ethanol Red™ [1]; Added Acetate 5 mM, 54 hours) was 0.97%, the “48 Hour ETOH (w/v %)” value (Ethanol Red™ [1]; Added Acetate 10 mM, 48 hours) was 13.66 w/v % and the “48 Hour Glycerol (w/v %)” value (Ethanol Red™ [1]; Added Acetate 10 mM, 48 hours) was 1.553 w/v %. The “% Boost over no added acetate” value (Ethanol Red™ [1]; Added Acetate 10 mM, 48 hours) was 1.07%, the “54 Hour ETOH (w/v %)” value (Ethanol Red™ [1]; Added Acetate 10 mM, 54 hours) was 13.73 w/v % and the “54 Hour Glycerol (w/v %)” value (Ethanol Red™ [1]; Added Acetate 10 mM, 54 hours) was 1.569 w/v %. The “% Boost over no added acetate” value (Ethanol Red™ [1]; Added Acetate 10 mM, 54 hours) was 1.10%, the “48 Hour ETOH (w/v %)” value (Ethanol Red™ [1]; Added Acetate 20 mM, 48 hours) was 13.77 w/v % and the “48 Hour Glycerol (w/v %)” value (Ethanol Red™ [1]; Added Acetate 20 mM, 48 hours) was 1.462 w/v %. The “% Boost over no added acetate” value (Ethanol Red™ [1]; Added Acetate 20 mM, 48 hours) was 1.88%, the “54 Hour ETOH (w/v %)” value (Ethanol Red™ [1]; Added Acetate 20 mM, 54 hours) was 13.83 w/v % and the “54 Hour Glycerol (w/v %)” value (Ethanol Red™ [1]; Added Acetate 20 mM, 54 hours) was 1.45 w/v %. For the same molecule, the “% Boost over no added acetate” value (Ethanol Red™ [1]; Added Acetate 20 mM, 54 hours) was 1.90%, the “48 Hour ETOH (w/v %)” value (Ethanol Red™ [1]; Added Acetate 40 mM, 48 hours) was 13.82 w/v % and the “48 Hour Glycerol (w/v %)” value (Ethanol Red™ [1]; Added Acetate 40 mM, 48 hours) was 1.365 w/v %. The “% Boost over no added acetate” value (Ethanol Red™ [1]; Added Acetate 40 mM, 48 hours) was 2.29%, the “54 Hour ETOH (w/v %)” value (Ethanol Red™ [1]; Added Acetate 40 mM, 54 hours) was 13.83 w/v % and the “54 Hour Glycerol (w/v %)” value (Ethanol Red™ [1]; Added Acetate 40 mM, 54 hours) was 1.365 w/v %. The “% Boost over no added acetate” value (Ethanol Red™ [1]; Added Acetate 40 mM, 54 hours) was 1.84%, the “48 Hour ETOH (w/v %)” value (Ethanol Red™ [1]; Added Acetate 60 mM, 48 hours) was 13.88 w/v % and the “48 Hour Glycerol (w/v %)” value (Ethanol Red™ [1]; Added Acetate 60 mM, 48 hours) was 1.332 w/v %. The “% Boost over no added acetate” value (Ethanol Red™ [1]; Added Acetate 60 mM, 48 hours) was 2.71%, the “54 Hour ETOH (w/v %)” value (Ethanol Red™ [1]; Added Acetate 60 mM, 54 hours) was 13.83 w/v % and the “54 Hour Glycerol (w/v %)” value (Ethanol Red™ [1]; Added Acetate 60 mM, 54 hours) was 1.323 w/v %. The “% Boost over no added acetate” value (Ethanol Red™ [1]; Added Acetate 60 mM, 54 hours) was 1.84%, the “48 Hour ETOH (w/v %)” value (Ethanol Red™ [1]; Added Acetate 120 mM, 48 hours) was 12.92 w/v % and the “48 Hour Glycerol (w/v %)” value (Ethanol Red™ [1]; Added Acetate 120 mM, 48 hours) was 1.337 w/v %. The “% Boost over no added acetate” value (Ethanol Red™ [1]; Added Acetate 120 mM, 48 hours) was −4.41%, the “54 Hour ETOH (w/v %)” value (Ethanol Red™ [1]; Added Acetate 120 mM, 54 hours) was 12.94 w/v % and the “54 Hour Glycerol (w/v %)” value (Ethanol Red™ [1]; Added Acetate 120 mM, 54 hours) was 1.34 w/v %. The “% Boost over no added acetate” value (Ethanol Red™ [1]; Added Acetate 120 mM, 54 hours) was −4.68%, the “% change over no added acetate” value (Ethanol Red™ [1]; Added Acetate 5 mM, 48 hours) was −4.68% and the “% change over no added acetate” value (Ethanol Red™ [1]; Added Acetate 5 mM, 54 hours) was −3.86%. For the same molecule, the “% change over no added acetate” value (Ethanol Red™ [1]; Added Acetate 10 mM, 48 hours) was −9.53%, the “% change over no added acetate” value (Ethanol Red™ [1]; Added Acetate 10 mM, 54 hours) was −7.18% and the “% change over no added acetate” value (Ethanol Red™ [1]; Added Acetate 20 mM, 48 hours) was −14.85%. The “% change over no added acetate” value (Ethanol Red™ [1]; Added Acetate 20 mM, 54 hours) was −14.21%, the “% change over no added acetate” value (Ethanol Red™ [1]; Added Acetate 40 mM, 48 hours) was −20.48% and the “% change over no added acetate” value (Ethanol Red™ [1]; Added Acetate 40 mM, 54 hours) was −19.21%. The “% change over no added acetate” value (Ethanol Red™ [1]; Added Acetate 60 mM, 48 hours) was −22.40%, the “% change over no added acetate” value (Ethanol Red™ [1]; Added Acetate 60 mM, 54 hours) was −21.70% and the “% change over no added acetate” value (Ethanol Red™ [1]; Added Acetate 120 mM, 48 hours) was −22.09%. For the same molecule, the “% change over no added acetate” value (Ethanol Red™ [1]; Added Acetate 120 mM, 54 hours) was −20.68%.

For `O=C(O)c1ccccc1` [Benzoic Acid, benzoic acid], the “effect of acid addition on fermentation performance” value (Ethanol Red™ [2]) was “increases fermentation performance”, the “Glycerol pH 3.8 (w/v %)” value (Ethanol Red™ [2]; Concentration 0.2 mM, pH 3.8) was 1.159 w/v % and the “Glycerol pH 5 (w/v %)” value (Ethanol Red™ [2]; Concentration 0.2 mM, pH 5) was 1.160 w/v %. For the same molecule, the “Glycerol pH 3.8 (w/v %)” value (Ethanol Red™ [2]; Concentration 0.5 mM, pH 3.8) was 1.091 w/v %, the “Glycerol pH 5 (w/v %)” value (Ethanol Red™ [2]; Concentration 0.5 mM, pH 5) was 1.127 w/v % and the “Glycerol pH 3.8 (w/v %)” value (Ethanol Red™ [2]; Concentration 0.8 mM, pH 3.8) was 1.041 w/v %. For the same molecule, the “Glycerol pH 5 (w/v %)” value (Ethanol Red™ [2]; Concentration 0.8 mM, pH 5) was 1.093 w/v %, the “ETOH pH 3.8 (w/v %)” value (Ethanol Red™ [2]; [3]) was 13.73 w/v % and the “ETOH pH 5 (w/v %)” value (Ethanol Red™ [2]; [4]) was 13.01 w/v %. For the same molecule, the “ETOH pH 3.8 (w/v %)” value (Ethanol Red™ [2]; [5]) was 13.6785 w/v %, the “ETOH pH 5 (w/v %)” value (Ethanol Red™ [2]; [6]) was 13.23 w/v % and the “ETOH pH 3.8 (w/v %)” value (Ethanol Red™ [2]; [7]) was 13.35 w/v %. The “ETOH pH 5 (w/v %)” value (Ethanol Red™ [2]; [8]) was 13.39 w/v %, the “% Boost over no added acid” value (Ethanol Red™ [2]; [3]) was 2.70% and the “% Boost over no added acid” value (Ethanol Red™ [2]; [4]) was 0.27%. The “% Boost over no added acid” value (Ethanol Red™ [2]; [5]) was 2.33%, the “% Boost over no added acid” value (Ethanol Red™ [2]; [6]) was 1.96% and the “% Boost over no added acid” value (Ethanol Red™ [2]; [7]) was −0.12%. For the same molecule, the “% Boost over no added acid” value (Ethanol Red™ [2]; [8]) was 3.20%, the “% Change from no added acid” value (Ethanol Red™ [2]; Concentration 0.2 mM, pH 3.8) was −11.47% and the “% Change from no added acid” value (Ethanol Red™ [2]; Concentration 0.2 mM, pH 5) was −13.60%. The “% Change from no added acid” value (Ethanol Red™ [2]; Concentration 0.5 mM, pH 3.8) was −16.65%, the “% Change from no added acid” value (Ethanol Red™ [2]; Concentration 0.5 mM, pH 5) was −16.08% and the “% Change from no added acid” value (Ethanol Red™ [2]; Concentration 0.8 mM, pH 3.8) was −20.45%. For the same molecule, the “% Change from no added acid” value (Ethanol Red™ [2]; Concentration 0.8 mM, pH 5) was −18.58%.

B1: JTP134: protease variant of SEQ ID NO: 3: D79L Y82F S87P A112P D142L (protein, listed as Thermoascus aurantiacus)
chain: MRLVASLTALVALSVPVFPAAVNVKRASSYLEITLSQVSNTLIKAVVQNTGSDELSFVHLNFFKDPAPVKKVSVYRDGSEVQFEGILSRYKSTGLSRDAFTYLAPGESVEDVFDIASTYDLTSGGPVTIRTEGVVPYATANSTDIAGYISYSSNVLTIDVDGAAAATVSKAITPLDRRTRISSCSGSRQSALTTALRNAASLANAAADAAQSGSASKFSEYFKTTSSSTRQTVAARLRAVAREASSSSSGATTYYCLDPFGYCSPNVLAYTLPSYNIIANCDIFYTYLPPLTSTCHAQDQATTALHEFTHAPGVYSPGTLDLAYGYQAAMGLSSSQAVMNADTYALYANAIYLGC
For B1, the “Relative activity 80° C./70° C.” value (zein) was 40%.
